The source of these data is PMC8880098, “Synthesis, Antibacterial Evaluation, and Computational Studies of a Diverse Set of Linezolid Conjugates” (Pharmaceuticals, 2022).

Molecules are shown by their SMILES. In brackets after ≈: the same amount, converted by molar mass. Read-outs that look alike come from different tables or passages of the source.

Data set [1] deals with Escherichia coli ATCC 47076. The experiment in a line: Antibacterial MIC, microdilution susceptibility test (CLSI). Format: cell-based. The source says: (§1) The synthesized linezolid conjugates (3a–k, 5a–f, 7a–c, 9a–c, 11a–f, 13, and 15) were subjected for antimicrobial properties determination against Gram-positive (Staphylococcus aureus ATCC 6538, Bacillus subtilis ATCC 6633) and Gram-negative (Pseudomonas aeruginosa ATCC 15692, Escherichia coli ATCC 47076) bacteria by the standard technique.
(§2) Antibacterial properties of the synthesized compounds (3a–k, 5a–f, 7a–c, 9a–c, 11a–f, 13 and 15) were screened against Gram-positive (Staphylococcus aureus ATCC 6538, Bacillus subtilis ATCC 6633) and Gram-negative (Pseudomonas aeruginosa ATCC 15,692 and Escherichia coli ATCC 47076) bacteria utilizing the standard technique. Linezolid was used as a standard reference/drug in the current study. The tested bacterial strains were obtained from MERCIN Center, Faculty of Agriculture, Ain Shams University, Cairo, Egypt.
(§3) To determine the antibacterial activity, stock solutions of the tested compounds and standard reference were prepared with up to 100% DMSO and stored at […]. If necessary, the solutions were heated to 40–60 °C before testing to facilitate complete dissolution. Double distilled water was used in all dilutions prepared. […] A microdilution susceptibility test was used for MIC determination (Mueller–Hinton broth in 96-well plates) according to the CLSI (the Clinical and Laboratory Standards Institute, Malvern, PA, USA). The bacterial inoculum was adjusted to approximately 2.5–3 × 10^4 cells/mL in Mueller–Hinton broth and incubated in a ratio of 1:1 with the test derivatives in polystyrene 96-well flat-bottom microplates. Positive growth control (without test derivatives) and negative control (without bacteria) were included. The microplates were placed in an incubator set to 37 °C for 24 h. Absorbance was measured at 620 nm at the end of the incubation period. The cut-off level for follow-up studies was defined as a minimum of 90% inhibition of growth compared to the untreated sample. Experiments were conducted once in triplicate. For selected compounds, minimum inhibitory concentration (MIC) values were determined by dose–response experiments. Experiments were performed at least twice, in triplicate per concentration tested.
In general terms: Broth dilution looks for growth in wells or tubes with falling amounts of substance.

For data set [2], the system named is Bacillus subtilis ATCC 6633. The data set is described as above. It is filed as cell-based. As to conditions: Bacillus subtilis.
From the text: as §1, §2, §3

Data set [3] concerns Pseudomonas aeruginosa ATCC 15692. The description is as above. It is filed as cell-based.
From the text: as §1, §2, §3

Data set [4] concerns Staphylococcus aureus ATCC 6538. Described as above. Format: cell-based. As to conditions: Staphylococcus aureus.
From the text: as §1, §2, §3

Data set [5] relates to Bacillus subtilis ATCC 6633. Put plainly: microbe, parasite or virus in culture. Also noted: species or system bacteria; Broth microdilution MIC in Mueller-Hinton broth, absorbance at 620 nm. The following applies: ATCC6633, 24 h, read-out: Observed MIC, uM (B. subtilis).
From the text: as §3, with “Antibacterial properties of the synthesized compounds (3a–k, 5a–f, 7a–c, 9a–c, 11a–f, 13 and 15) were screened against Gram-positive (Staphylococcus aureus ATCC 6538, Bacillus subtilis ATCC 6633) and Gram-negative (Pseudomonas aeruginosa ATCC 15,692 and Escherichia coli ATCC 47076) bacteria utilizing the standard technique. Linezolid was used as a standard reference/drug in the current study. The tested bacterial strains were obtained from MERCIN Center, Faculty of Agriculture, Ain Shams University, Cairo, Egypt. To” for “To”

Data set [6] relates to Staphylococcus aureus ATCC 6538. Put plainly: microbe, parasite or virus in culture. Also noted: species or system bacteria; Broth microdilution MIC in Mueller-Hinton broth, absorbance at 620 nm. The following applies: ATCC6538, 24 h, read-out: Observed MIC, uM (S. aureus).
From the text: as §3, with “Antibacterial properties of the synthesized compounds (3a–k, 5a–f, 7a–c, 9a–c, 11a–f, 13 and 15) were screened against Gram-positive (Staphylococcus aureus ATCC 6538, Bacillus subtilis ATCC 6633) and Gram-negative (Pseudomonas aeruginosa ATCC 15,692 and Escherichia coli ATCC 47076) bacteria utilizing the standard technique. Linezolid was used as a standard reference/drug in the current study. The tested bacterial strains were obtained from MERCIN Center, Faculty of Agriculture, Ain Shams University, Cairo, Egypt. To” for “To”

The mark [7] stands for this setting: ATCC47076, Mueller–Hinton broth, 37 °C, 24 h, read-out: MIC, μg/mL ± SE, E. Coli (ATCC 47076).
The mark [8] stands for this setting: ATCC47076, value in parentheses, read-out: MIC (μmol), E. Coli (ATCC 47076) (converted).
Where [9] appears, read: ATCC6633, 24 h, Mueller–Hinton broth, 37 °C, 24 h, read-out: MIC, μg/mL ± SE, B. Subtilis (ATCC 6633).
Where [10] appears, read: ATCC15692, Mueller–Hinton broth, 37 °C, 24 h, read-out: MIC, μg/mL ± SE, P. Aeruginosa (ATCC 15692).
The mark [11] stands for this setting: ATCC15692, value in parentheses, read-out: MIC (μmol), P. Aeruginosa (ATCC 15692) (converted).
Where [12] appears, read: ATCC6538, 24 h, Mueller–Hinton broth, 37 °C, 24 h, read-out: MIC, μg/mL ± SE, S. Aureus (ATCC 6538).
Where [13] appears, read: ATCC6538, value in parentheses, read-out: MIC (μmol), S. Aureus (ATCC 6538) (converted).

In the case of `CC(C)(C)OC(=O)NCC(=O)NC[C@H]1CN(c2ccc(N3CCOCC3)c(F)c2)C(=O)O1` [Compound 3f, Tert-butyl (S)-(2-(((3-(3-fluoro-4-morpholinophenyl)-2-oxooxazolidin-5-yl)methyl)amino)-2-oxoethyl)carbamate], the melting point was in the range of 54 to 56 °C. Moreover, the MIC in data set [1] (setting [7]) stood at 32 ± 2.8 µg/mL. The MIC in data set [1] (setting [8]) is 70.7 µM. Further, in data set [2] (setting [9]), the MIC amounted to 8 ± 0.4 µg/mL. In addition, the MIC in data set [3] (setting [10]) worked out at 32 ± 1.6 µg/mL. Besides, the MIC in data set [3] (setting [11]) was 70.7 µM. The MIC in data set [4] (setting [12]) was found to be 32 ± 1.4 µg/mL. In addition, the MIC in data set [5] was 17.7 µM (≈ 8 µg/mL). In addition, the MIC in data set [6] amounted to 70.7 µM (≈ 32 µg/mL).
`CNc1ccc(C(=O)NC[C@H]2CN(c3ccc(N4CCOCC4)c(F)c3)C(=O)O2)cc1` [Compound 5e, (S)-N-((3-(3-Fluoro-4-morpholinophenyl)-2-oxooxazolidin-5-yl)methyl)-4-(methylamino) benzamide] registered a melting point of 195 to 197 °C. Further, the MIC in data set [1] (setting [7]) was 32 ± 1.6 µg/mL. In data set [1] (setting [8]), the MIC was 74.7 µM. The MIC in data set [2] (setting [9]) was determined as 1 ± 0.1 µg/mL. For the same compound, in data set [2] (ATCC6633, as quoted in running text, read-out: MIC against B. subtilis), the MIC lay in the range of 2.33 to 2.5 µM. The MIC in data set [2] (ATCC6633, value in parentheses, read-out: MIC (μmol), B. Subtilis (ATCC 6633) (converted)) was 2.33 µM. The MIC in data set [3] (setting [10]) came out at 32 ± 2.2 µg/mL. In addition, the MIC in data set [3] (setting [11]) is 74.7 µM. In addition, in data set [4] (setting [12]), the MIC was found to be 4 ± 0.2 µg/mL. Besides, the MIC in data set [4] (ATCC6538, as quoted in running text, read-out: MIC against S. aureus) was in the range of 9.34 to 10 µM. Also, the MIC in data set [4] (setting [13]) is 9.34 µM.
For `CSCC[C@H](NC(=O)OC(C)(C)C)C(=O)NC[C@H]1CN(c2ccc(N3CCOCC3)c(F)c2)C(=O)O1` [Compound 3i, Tert-butyl ((S)-1-((((S)-3-(3-fluoro-4-morpholinophenyl)-2-oxooxazolidin-5-yl)methyl)amino)-4-(methylthio)-1-oxobutan-2-yl)carbamate], the MIC is 32 ± 0.5 µg/mL in data set [1] (setting [7]); 60.8 µM in data set [1] (setting [8]); 32 ± 1.4 µg/mL in data set [2] (setting [9]); 32 ± 0.8 µg/mL in data set [3] (setting [10]); 60.8 µM in data set [3] (setting [11]); 32 ± 2.1 µg/mL in data set [4] (setting [12]). For the same compound, the MIC in data set [5] and in data set [6] was 60.8 µM (≈ 32 µg/mL) each time.
For `O=C(CNC(=O)OCc1ccccc1)NC[C@H]1CN(c2ccc(N3CCOCC3)c(F)c2)C(=O)O1` [Compound 3a, Benzyl (S)-(2-(((3-(3-fluoro-4-morpholinophenyl)-2-oxooxazolidin-5-yl)methyl)amino)-2-oxoethyl)carbamate], the MIC in data set [1] (setting [7]) was 32 ± 1 µg/mL; in data set [1] (setting [8]) it was 65.8 µM; in data set [2] (setting [9]) it was 4 ± 0.3 µg/mL; in data set [3] (setting [10]), 64 ± 1.4 µg/mL; in data set [3] (setting [11]), 132 µM; in data set [4] (setting [12]), 16 ± 2.1 µg/mL. For the same compound, the MIC stood at 8.22 µM (≈ 4 µg/mL) in data set [5] and 32.9 µM (≈ 16 µg/mL) in data set [6].
In the case of `COc1cc(CNC[C@H]2CN(c3ccc(N4CCOCC4)c(F)c3)C(=O)O2)cc(OC)c1` [Compound 11f, (S)-5-[{(3,5-Dimethoxybenzyl)amino}methyl]-3-(3-fluoro-4-morpholinophenyl) oxazo-lidine-2-one], the MIC was 32 ± 0.8 µg/mL in data set [1] (setting [7]); 71.8 µM in data set [1] (setting [8]); 32 ± 0.3 µg/mL in data set [2] (setting [9]); 32 ± 1.9 µg/mL in data set [3] (setting [10]); 71.8 µM in data set [3] (setting [11]); 32 ± 1.7 µg/mL in data set [4] (setting [12]). Moreover, the MIC in data set [5] and in data set [6] was 71.8 µM (≈ 32 µg/mL) throughout.
In the case of `O=C1O[C@@H](CNCc2ccc(F)cc2)CN1c1ccc(N2CCOCC2)c(F)c1` [Compound 11a, (S)-3-(3-Fluoro-4-morpholinophenyl)-5-[{(4-fluorobenzyl)amino}methyl] oxazolidin-2-one], the MIC was 32 ± 2.5 µg/mL in data set [1] (setting [7]); 79.3 µM in data set [1] (setting [8]); 32 ± 1.2 µg/mL in data set [2] (setting [9]); 32 ± 2.2 µg/mL in data set [3] (setting [10]); 79.3 µM in data set [3] (setting [11]); 32 ± 2.7 µg/mL in data set [4] (setting [12]). For the same compound, the MIC in data set [5] and in data set [6] was 79.3 µM (≈ 32 µg/mL) each time.
As to `CC[C@H](C)[C@H](NC(=O)OC(C)(C)C)C(=O)NC[C@H]1CN(c2ccc(N3CCOCC3)c(F)c2)C(=O)O1` [Compound 3k, Tert-butyl ((2S,3S)-1-((((S)-3-(3-fluoro-4-morpholinophenyl)-2-oxooxazolidin-5-yl)methyl)amino)-3-methyl-1-oxopentan-2-yl)carbamate], the MIC in data set [1] (setting [7]) is 32 ± 2.1 µg/mL; in data set [1] (setting [8]), 62.9 µM; in data set [2] (setting [9]), 32 ± 1.3 µg/mL; in data set [3] (setting [10]) it was 32 ± 1.3 µg/mL; in data set [3] (setting [11]) it was 62.9 µM; in data set [4] (setting [12]), 32 ± 2.1 µg/mL. Besides, the MIC in data set [5] and in data set [6] was 62.9 µM (≈ 32 µg/mL) each time.
As for `CC(C)[C@H](NC(=O)OC(C)(C)C)C(=O)NC[C@H]1CN(c2ccc(N3CCOCC3)c(F)c2)C(=O)O1` [Compound 3h, Tert-butyl ((S)-1-((((S)-3-(3-fluoro-4-morpholinophenyl)-2-oxooxazolidin-5-yl)methyl)amino)-3-methyl-1-oxobutan-2-yl)carbamate], the MIC in data set [1] (setting [7]) is 32 ± 1.1 µg/mL; in data set [1] (setting [8]) it was 64.7 µM; in data set [2] (setting [9]), 32 ± 0.7 µg/mL; in data set [3] (setting [10]), 32 ± 0.5 µg/mL; in data set [3] (setting [11]), 64.7 µM; in data set [4] (setting [12]) it was 32 ± 1.3 µg/mL. Moreover, the MIC in data set [5] and in data set [6] was 64.7 µM (≈ 32 µg/mL) throughout.
Regarding `O=C(NC[C@H]1CN(c2ccc(N3CCOCC3)c(F)c2)C(=O)O1)c1ccncc1` [Compound 7a, (S)-N-((3-(3-Fluoro-4-morpholinophenyl)-2-oxooxazolidin-5-yl)methyl)isonicotin-amide], the melting point fell in the range of 198 to 200 °C. Further, the MIC in data set [1] (setting [7]) was determined as 32 ± 0.9 µg/mL. Also, in data set [1] (setting [8]), the MIC is 79.9 µM. The MIC in data set [2] (setting [9]) came to 2 ± 0.2 µg/mL. In data set [3] (setting [10]), the MIC worked out at 8 ± 0.1 µg/mL. The MIC in data set [3] (ATCC15692, read-out: MIC against P. aeruginosa) was 20 µM. Besides, in data set [3] (setting [11]), the MIC is 20 µM. In data set [4] (setting [12]), the MIC came to 8 ± 0.3 µg/mL. In addition, the MIC in data set [4] (setting [13]) was 20 µM. Further, in data set [5], the MIC came out at 5 µM (≈ 2 µg/mL).
Turning to `O=C1O[C@@H](CNCCCO[N+](=O)[O-])CN1c1ccc(N2CCOCC2)c(F)c1` [Compound 13, (S)-3-[{(3-(3-Fluoro-4-morpholinophenyl)-2-oxooxazolidin-5-yl)methyl}amino] propyl nitrate], the MIC is 32 ± 0.6 µg/mL in data set [1] (setting [7]); 80.3 µM in data set [1] (setting [8]); 32 ± 0.9 µg/mL in data set [2] (setting [9]); 32 ± 1.5 µg/mL in data set [3] (setting [10]); 80.3 µM in data set [3] (setting [11]); 32 ± 1 µg/mL in data set [4] (setting [12]). For the same compound, the MIC in data set [5] and in data set [6] was 80.3 µM throughout.

As a reminder, the melting point is the temperature of the solid-liquid transition.
